What was measured:
[1] = tested on: barnyardgrass; assay: Test B preemergence/postemergence greenhouse plant response rating 0 to 10; format: in vivo, Echinochloa crus-galli; conditions: for Plant response rating, Barnyardgrass: 0 to 10 scale
Method in brief: (§1)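 Postemergence treatment of plants two to eighteen cm tall ran alongside preemergence treatment of planted seed, each using compound in a non-phytotoxic solvent.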

[2] = tested on: chickweed; assay: as above; format: in vivo, Stellaria media; conditions: 0 to 10 scale
Method in brief: as §1

[3] = tested on: rape; assay: as above; format: in vivo, Brassica napus; conditions: 0 to 10 scale
Method in brief: as §1

[4] = tested on: wild buckwheat; assay: as above; format: in vivo, Polygonum convolvulus; conditions: 0 to 10 scale
Method in brief: as §1

[5] = tested on: smooth crabgrass; assay: Test G preemergence/postemergence greenhouse plant response rating 0 to 100; format: in vivo, Digitaria ischaemum; conditions: 0 to 100 scale
Text: Seeds, rhizomes, or plant parts of alfalfa (Medicago ativa), annual bluegrass (Poa annua), bermudagrass (Cynodon dactylon), broadleaf signalgrass (Brachiaria plantaginea), common purslane (Portulaca oleracea), common ragweed (Ambrosia elatior), […] (Paspalum dilatatum), goosegrass (Eleusine indica), guineagrass (Panicum maximum), […] exaltata), johnsongrass (Sorghum halepense), large crabgrass (Digitaria sanguinalis), peanut (Arachis hypoagaea), pitted morningglory (Ipomoea lacunosa), purple nutsedge (Cyperus rotundus), sandbur (Cenchrus echinatus), smooth crabgrass (Digitaria ischaemum) and yellow nutsedge (Cyperus esculentus) were planted into greenhouse pots containing greenhouse planting medium. Each pot contained only one plant species. The test compound was dissolved in a non-phytotoxic solvent and applied preemergence and/or postemergence to the plants. Preemergence applications were made within one day of planting the seeds or plant parts. Postemergence applications were applied when the plants were in the two to four leaf stage (three to twenty cm). Test chemicals were dissolved in a non-phytotoxic solvent and applied preemergence and postemergence to the plants. Untreated control plants and treated plants were placed in the greenhouse and visually evaluated for injury at 13 to 21 days after herbicide application. […] A dash (-) response indicates no test result.

[6] = tested on: bedstraw; assay: Test C preemergence/postemergence greenhouse plant response rating 0 to 100; format: in vivo, Galium aparine; conditions: POSTEMERGENCE; for Plant response rating, Bedstraw: 0 to 100 scale
Method in brief: (§2)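 Compounds in non-phytotoxic solvent went onto sandy loam before emergence (seeded one day earlier) or onto plants at the one-to-four leaf stage. Duck salad was treated via flood water (~2.5 cm, maintained) over silt loam.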

[7] = tested on: corn; assay: as above; format: in vivo, Zea mays; conditions: POSTEMERGENCE; for Plant response rating, Corn: 0 to 100 scale
Method in brief: as §2

[8] = tested on: crabgrass; assay: as above; format: in vivo, Digitaria sanguinalis; conditions: POSTEMERGENCE; for Plant response rating, Crabgrass: 0 to 100 scale
Method in brief: as §2

[9] = tested on: downy brome; assay: as above; format: in vivo, Bromus tectorum; conditions: POSTEMERGENCE; for Plant response rating Downy Brome: 0 to 100 scale
Method in brief: as §2

[10] = tested on: ryegrass; assay: as above; format: in vivo, Lolium multiflorum; conditions: POSTEMERGENCE; for Plant response rating Ryegrass: 0 to 100 scale
Method in brief: as §2

[11] = tested on: sugar beet; assay: as above; format: in vivo, Beta vulgaris; conditions: POSTEMERGENCE; for Plant response rating, Sugar beet: 0 to 100 scale
Method in brief: as §2

[12] = tested on: wild oat; assay: as above; format: in vivo, Avena fatua; conditions: POSTEMERGENCE; for Plant response rating, Wild oat: 0 to 100 scale
Method in brief: as §2

[13] = tested on: umbrella sedge; assay: Test C flood test plant response rating 0 to 100; format: in vivo, Cyperus difformis; conditions: for Plant response rating Umbrella sedge: flood test species listed under POSTEMERGENCE, 0 to 100 scale
Method in brief: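 Compounds in non-phytotoxic solvent applied preemergence to sandy loam one day after planting, postemergence at the 1–4 leaf stage, or to ~2.5 cm floodwater over silt loam.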

Q: `CCCOc1cc(-c2nn3c(c2Cl)CCCC3)c(F)cc1Cl` [Compound 23] was tested. Which “Plant response rating (0 to 10 scale), Barnyardgrass” value ([1]; POSTEMERGENCE, Rate 50 g/ha) did it give?
A: 7

Q: And the “Plant response rating, Barnyardgrass” value ([1]; POSTEMERGENCE, Rate 200 g/ha)?
A: 9

Q: What about the “Plant response rating, Barnyardgrass” value ([1]; PREEMERGENCE, Rate 50 g/ha) of the same molecule?
A: 4

Q: And the “Plant response rating, Barnyardgrass” value ([1]; Rate 200 g/ha, PREEMERGENCE)?
A: 6

Q: And the “Plant response rating, Chickweed” value ([2]; POSTEMERGENCE, Rate 200 g/ha)?
A: 9

Q: And the “Plant response rating, Chickweed” value ([2]; PREEMERGENCE, Rate 50 g/ha)?
A: 0

Q: And the “Plant response rating, Chickweed” value ([2]; Rate 200 g/ha, PREEMERGENCE)?
A: 6

Q: And the “Plant response rating, Rape” value ([3]; POSTEMERGENCE, Rate 50 g/ha)?
A: 6

Q: And the “Plant response rating, Rape” value ([3]; POSTEMERGENCE, Rate 200 g/ha)?
A: 10

Q: What about the “Plant response rating, Rape” value ([3]; PREEMERGENCE, Rate 50 g/ha) of the same molecule?
A: 3

Q: What about the “Plant response rating, Rape” value ([3]; Rate 200 g/ha, PREEMERGENCE) of the same molecule?
A: 6

Q: And the “Plant response rating, Wild buckwheat” value ([4]; POSTEMERGENCE, Rate 50 g/ha)?
A: 10

Q: And the “Plant response rating, Wild buckwheat” value ([4]; POSTEMERGENCE, Rate 200 g/ha)?
A: 10

Q: What about the “Plant response rating, Wild buckwheat” value ([4]; PREEMERGENCE, Rate 50 g/ha) of the same molecule?
A: 0

Q: And the “Plant response rating, Wild buckwheat” value ([4]; Rate 200 g/ha, PREEMERGENCE)?
A: 10

Q: What about the “Plant response rating, Smooth Crabgras” value ([5]; POSTEMERGENCE, Rate 125 g/ha) of the same molecule?
A: 0

Q: And the “Plant response rating, Smooth Crabgras” value ([5]; POSTEMERGENCE, Rate 250 g/ha)?
A: 0

Q: And the “Plant response rating, Smooth Crabgras” value ([5]; PREEMERGENCE, Rate 125 g/ha)?
A: 0

Q: What about the “Plant response rating, Smooth Crabgras” value ([5]; PREEMERGENCE, Rate 250 g/ha) of the same molecule?
A: 20

Q: What does the source list for `COc1cc(-c2nn3c(c2Cl)CCCC3)c(F)cc1Cl` [Compound 29]?
A: Plant response rating (0 to 10 scale), Barnyardgrass ([1]; POSTEMERGENCE, Rate 50 g/ha): 8; Plant response rating, Barnyardgrass ([1]; POSTEMERGENCE, Rate 200 g/ha): 10; Plant response rating, Barnyardgrass ([1]; PREEMERGENCE, Rate 50 g/ha): 4; Plant response rating, Barnyardgrass ([1]; Rate 200 g/ha, PREEMERGENCE): 8; Plant response rating, Chickweed ([2]; POSTEMERGENCE, Rate 200 g/ha): 8; Plant response rating, Chickweed ([2]; PREEMERGENCE, Rate 50 g/ha): 3; Plant response rating, Chickweed ([2]; Rate 200 g/ha, PREEMERGENCE): 7; Plant response rating, Rape ([3]; POSTEMERGENCE, Rate 50 g/ha): 8; Plant response rating, Rape ([3]; PREEMERGENCE, Rate 50 g/ha): 8; Plant response rating, Rape ([3]; Rate 200 g/ha, POSTEMERGENCE): 10; Plant response rating, Rape ([3]; Rate 200 g/ha, PREEMERGENCE): 10; Plant response rating, Wild buckwheat ([4]; POSTEMERGENCE, Rate 50 g/ha): 10; Plant response rating, Wild buckwheat ([4]; PREEMERGENCE, Rate 50 g/ha): 8; Plant response rating, Wild buckwheat ([4]; Rate 200 g/ha, POSTEMERGENCE): 10; Plant response rating, Wild buckwheat ([4]; Rate 200 g/ha, PREEMERGENCE): 10; Plant response rating, Bedstraw ([6]; 62 g/ha): 100; Plant response rating, Bedstraw ([6]; 250 g/ha): 100; Plant response rating (0 to 100), Bedstraw ([6]; Rate 4 g/ha): 90; Plant response rating (0 to 100), Bedstraw ([6]; Rate 16 g/ha): 100; Plant response rating, Corn ([7]; 62 g/ha): 40; Plant response rating, Corn ([7]; 250 g/ha): 50; Plant response rating (0 to 100), Corn ([7]; Rate 4 g/ha): 20; Plant response rating (0 to 100), Corn ([7]; Rate 16 g/ha): 20; Plant response rating, Crabgrass ([8]; 62 g/ha): 20; Plant response rating, Crabgrass ([8]; 250 g/ha): 50; Plant response rating (0 to 100), Crabgrass ([8]; Rate 4 g/ha): 0; Plant response rating (0 to 100), Crabgrass ([8]; Rate 16 g/ha): 20; Plant response rating Downy Brome ([9]; 62 g/ha): 80; Plant response rating Downy Brome ([9]; 250 g/ha): 95; Plant response rating (0 to 100), Downy Brome ([9]; Rate 4 g/ha): 20; Plant response rating (0 to 100), Downy Brome ([9]; Rate 16 g/ha): 60; Plant response rating Ryegrass ([10]; 62 g/ha): 70; Plant response rating Ryegrass ([10]; 250 g/ha): 90; Plant response rating (0 to 100), Ryegrass ([10]; Rate 4 g/ha): 30; Plant response rating (0 to 100), Ryegrass ([10]; Rate 16 g/ha): 60; Plant response rating, Sugar beet ([11]; 62 g/ha): 100; Plant response rating, Sugar beet ([11]; 250 g/ha): 100; Plant response rating (0 to 100), Sugar beet ([11]; Rate 16 g/ha): 90; Plant response rating, Wild oat ([12]; 62 g/ha): 60; Plant response rating, Wild oat ([12]; 250 g/ha): 90; Plant response rating (0 to 100), Wild oat ([12]; Rate 4 g/ha): 20; Plant response rating (0 to 100), Wild oat ([12]; Rate 16 g/ha): 40; Plant response rating (0 to 100), Umbrella sedge ([13]; POSTEMERGENCE section, flood test, Rate 4 g/ha): 20; Plant response rating (0 to 100), Umbrella sedge ([13]; Rate 16 g/ha, under POSTEMERGENCE head (flood test species)): 30; Plant response rating Umbrella sedge ([13]; 62 g/ha): 90; Plant response rating Umbrella sedge ([13]; 250 g/ha): 95; Plant response rating, Smooth Crabgras ([5]; POSTEMERGENCE, Rate 125 g/ha): 0; Plant response rating, Smooth Crabgras ([5]; POSTEMERGENCE, Rate 250 g/ha): 0; Plant response rating, Smooth Crabgras ([5]; PREEMERGENCE, Rate 125 g/ha): 0; Plant response rating, Smooth Crabgras ([5]; PREEMERGENCE, Rate 250 g/ha): 100

Q: `Fc1cc(Cl)c(OCc2ccccc2)cc1-c1nn2c(c1Cl)CCCC2` [Compound 22] was tested. Which “Plant response rating (0 to 10 scale), Barnyardgrass” value ([1]; POSTEMERGENCE, Rate 50 g/ha) did it give?
A: 3

Q: What about the “Plant response rating, Barnyardgrass” value ([1]; POSTEMERGENCE, Rate 200 g/ha) of the same molecule?
A: 5

Q: What about the “Plant response rating, Barnyardgrass” value ([1]; PREEMERGENCE, Rate 50 g/ha) of the same molecule?
A: 2

Q: What about the “Plant response rating, Barnyardgrass” value ([1]; Rate 200 g/ha, PREEMERGENCE) of the same molecule?
A: 5

Q: What about the “Plant response rating, Chickweed” value ([2]; POSTEMERGENCE, Rate 200 g/ha) of the same molecule?
A: 7

Q: And the “Plant response rating, Chickweed” value ([2]; PREEMERGENCE, Rate 50 g/ha)?
A: 0

Q: What about the “Plant response rating, Chickweed” value ([2]; Rate 200 g/ha, PREEMERGENCE) of the same molecule?
A: 2

Q: And the “Plant response rating, Rape” value ([3]; POSTEMERGENCE, Rate 50 g/ha)?
A: 4

Q: What about the “Plant response rating, Rape” value ([3]; POSTEMERGENCE, Rate 200 g/ha) of the same molecule?
A: 7

Q: And the “Plant response rating, Rape” value ([3]; PREEMERGENCE, Rate 50 g/ha)?
A: 0

Q: And the “Plant response rating, Rape” value ([3]; Rate 200 g/ha, PREEMERGENCE)?
A: 1

Q: What about the “Plant response rating, Wild buckwheat” value ([4]; POSTEMERGENCE, Rate 50 g/ha) of the same molecule?
A: 10

Q: What about the “Plant response rating, Wild buckwheat” value ([4]; POSTEMERGENCE, Rate 200 g/ha) of the same molecule?
A: 10

Q: What about the “Plant response rating, Wild buckwheat” value ([4]; PREEMERGENCE, Rate 50 g/ha) of the same molecule?
A: 2

Q: What about the “Plant response rating, Wild buckwheat” value ([4]; Rate 200 g/ha, PREEMERGENCE) of the same molecule?
A: 5

Q: And the “Plant response rating, Smooth Crabgras” value ([5]; POSTEMERGENCE, Rate 125 g/ha)?
A: 0

Q: What about the “Plant response rating, Smooth Crabgras” value ([5]; POSTEMERGENCE, Rate 250 g/ha) of the same molecule?
A: 0

Q: What about the “Plant response rating, Smooth Crabgras” value ([5]; PREEMERGENCE, Rate 125 g/ha) of the same molecule?
A: 0

Q: And the “Plant response rating, Smooth Crabgras” value ([5]; PREEMERGENCE, Rate 250 g/ha)?
A: 0

Reference: patent US6358885B1, “Substituted phenylheterocyclic herbicides” (Mississippi State University, priority 1992, dated 2002)
